Reference: patent US10987351B2, “RORgamma modulators and uses thereof” (Genfit, priority 2017, dated 2021)
pIC50: −log10 of the molar value. Several values for one entry are separate records, joined by “and”; a condition that tells them apart may be missing. Equal entries are not always repeated.

How the values were obtained:
human RORγt [1] = biological target: T1, human RORγt (Homo sapiens, UniProt P51449); experiment: IL-17 secretion from EL4 murine lymphoma cells overexpressing human RORγt; assay type: cell-based; settings: human RORγt-transfected EL4 cells, PMA and ionomycin stimulation; read-out: IC50, inhibition of IL-17 secretion
T1 sequence (P51449 1-497 isoform P51449-2): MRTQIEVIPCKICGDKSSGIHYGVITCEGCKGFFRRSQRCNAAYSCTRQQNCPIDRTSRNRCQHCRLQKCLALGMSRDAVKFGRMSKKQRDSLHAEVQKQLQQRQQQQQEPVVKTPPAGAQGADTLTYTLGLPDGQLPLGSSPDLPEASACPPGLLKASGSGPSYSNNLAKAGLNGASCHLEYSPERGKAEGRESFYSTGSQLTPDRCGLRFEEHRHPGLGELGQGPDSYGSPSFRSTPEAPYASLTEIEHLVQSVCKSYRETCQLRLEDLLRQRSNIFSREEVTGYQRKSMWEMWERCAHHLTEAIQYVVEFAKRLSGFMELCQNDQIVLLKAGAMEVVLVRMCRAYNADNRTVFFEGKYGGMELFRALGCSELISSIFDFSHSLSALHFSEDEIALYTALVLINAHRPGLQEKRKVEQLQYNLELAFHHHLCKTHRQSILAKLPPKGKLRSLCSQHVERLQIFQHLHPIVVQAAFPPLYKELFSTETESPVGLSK
Method: Murine EL-4 lymphoma cell line overexpressing human RORγt was used in this functional assay to assess compound ability to inhibit IL-17 cytokine secretion.
EL-4 cells are maintained in a standard culture medium RPMI supplemented with 10% fetal calf serum, 1% sodium pyruvate, 1% essential amino acids and 1% antibiotics at 37° C. in a humidified atmosphere of 5% CO02 and 95% air. Culture medium was changed every 2 days. EL4 cells were transfected with a plasmid encoding hRORγt (sequence identical to published sequence NM 001001523). […] Briefly, 1 μg of DNA/1 million cells was served to transfect EL-4 cells. Cell/DNA suspension was transferred into certified cuvette and the electroporation of RORγt plasmid was carried out using appropriate Nucleofector® program.
Cells were seeded in 96 well plates at a density of 150000 cells/I well then treated with compounds of this invention at indicated concentrations and incubated for 24 hours at 37° C. in a humidified atmosphere of 5% CO2 and 95% air. EL-4 cells were pretreated with test compounds (RORγ modulators) and stimulated with PMA (10 ng/mL) and ionomycin (1 μM final concentration) in the presence of test compound concentrations for additional 24 h at 37° C. in a humidified atmosphere of 5% CO2 and 95% air. Subsequently, supernatants were collected (after centrifugation at 300 g for 10 minutes) to determine the concentrations of IL-17 by HTRF (CisBio, France) or ELISA (R&D Systems Europe) according to the manufacturer's protocols.

human RORγt [2] = biological target: T1, human RORγt; experiment: RORE Luciferase/RORγt transactivation assay; assay type: cell-based; design: the full-length cDNA of human RORγt; V5-His (encoded by the vector); expressed in transfected cells; host or cells: COS-7 (monkey kidney); settings: COS-7 cells transfected with human IL-17 promoter luciferase reporter and RORγt plasmid, 20 h; read-out: IC50, RORγt activity inhibition (luciferase reporter)
Method: It is well known that RORγ binds to a conserved non-coding sequence (CNS) enhancer element in the IL-17 promoter.
Culture medium was changed every 2 days.
The 4.3 Kb human IL-17 promoter containing the RORγ-specific CNS enhancer element was PCR amplified from human genomic DNA and cloned into a pGL3-TKLuc2Cp reporter plasmid.
The luciferase reporter plasmid and the RORγt overexpression plasmid were transfected into COS-7 cell line using 4 μLJetPEI™/μg of DNA. Briefly, 150 ng of DNA (ration 1/2 between RORE-Tk Luc2Cp and cDNA RORγt or the empty vector for the negative control) was served to transfect adherent COS-7 cells in a […] culture flask, in complete medium (see cos-7 cell line culture).
Cells were then detached (using trypsin) and washed by centrifugation at 300 g for 10 minutes. Cell pellet was resuspended in serum free/phenol red free DMEM and seeded in 384 well plates at a density of 10000 cells/well and then incubated for 4 h at 37° C.
Compounds were dissolved in 100% DMSO to obtain 10 mM stock solutions. For each compound, test concentrations were diluted in serum free/phenol red free DMEM using the Genesis Freedom 200™ (TECAN) and added to the cells to obtain a 0.3% DMSO final concentration (in a final volume of 40 μL per well).
The luciferase activity was then measured with 40 μL/well steady-Glo Luciferase assay system (Promega, Madison, Wis.) and after incubation at room temperature for 30 minutes. The luminescence was estimated using the Ultra384 reader (TECAN). Data were collected and analyzed using GraphPad Prism software (GraphPad Software V5.02, San Diego Calif. USA). IC50 in μM and Emax in % were reported for each compound.

[3] = biological target: T2, RORγt ligand-binding domain (RORγt-LBD) (Homo sapiens, UniProt P51449); experiment: Time-resolved FRET (TR-FRET) RORγt coactivator assay; assay type: biochemical; settings: GST-RORγ-LBD, biotinylated RIP140 peptide, 2 hours; read-out: IC50, coactivator-RORγt binding inhibition (TR-FRET)
T2 construct: 20 nM recombinantly expressed RORγ-LBD fused to GST
T2 sequence (P51449 269-508 limits assumed): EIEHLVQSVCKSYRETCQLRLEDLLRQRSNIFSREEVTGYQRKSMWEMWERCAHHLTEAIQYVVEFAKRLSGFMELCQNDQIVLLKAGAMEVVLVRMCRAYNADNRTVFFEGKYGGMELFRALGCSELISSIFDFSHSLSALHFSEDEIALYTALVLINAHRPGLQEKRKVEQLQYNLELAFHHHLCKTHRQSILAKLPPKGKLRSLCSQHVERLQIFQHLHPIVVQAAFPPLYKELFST
Source text: Time-resolved FRET (TR-FRET) RORγt coactivator assay was used to identify RORγ modulator compounds with ligand-dependent coactivator displacement. The assay uses a d2-labeled anti-GST antibody, synthetic N-terminally biotinylated peptide which is derived from nuclear receptor coactivator protein RIP140, and a RORγt ligand-binding domain (RORγt-LBD) that is tagged with glutathione-S-transferase (GST). The influence of compounds on the RORγ-peptide interaction relies on the binding dependent energy transfer from a donor to an acceptor fluorophor attached to the binding partner of interest. […] For reduction of background from compound fluorescence, TR-FRET method makes use of generic fluorophore labels and time resolved detection.
The assays were done in a final volume of 20 μl in a 384 well plate in a CHAPS buffer (2 mM CHAPS; 1 mM DTT, 2 mM EDTA; 0.1% BSA), containing 20 nM recombinantly expressed RORγ-LBD fused to GST, 30 nM N-terminally biotinylated peptide, 1 nM streptavidin-terbium conjugate and 20 nM d2 labeled-anti-GST. Test compounds were diluted using 10 mM stock solution. The range of the final compound concentrations used in this test was from 0.3 nM to 30 μM (logarithmic scale). DMSO content of the samples was kept at 1%. The assay was equilibrated for 2 hours in the dark at room temperature in 384 well plates (Falcon). The signal was detected by an Ultra384 reader (TECAN). […] Compounds that promote coactivator displacement induce a concentration-dependent decrease in time-resolved fluorescent signal. Data were collected and analyzed using GraphPad Prism software (GraphPad Software V5.02, San Diego Calif. USA). IC50 in μM and Emax in % were reported for each compound.

pIC50 (human RORγt [1]) | pIC50 (human RORγt [2]) | pIC50 [3] | Compound
6.00 to 7.00 | > 7.00 | > 7.00 | CC(=O)C1CCN(c2ccc(CC(=O)NC(c3ccc(C)o3)c3ccc(C)cc3N3CCCCC3)cc2)CC1 (centres unmarked) [Cpd.19, 2-[4-(4-acetylpiperidin-1-yl)phenyl]-N-{[4-methyl-2-(piperidin-1-yl)phenyl](5-methylfuran-2-yl)methyl}acetamide]
 | > 7.00 | > 7.00 | Cc1ccc(C(NC(=O)Cc2cc(N3CCC(S(C)(=O)=O)CC3)ccc2F)c2ccc(C)o2)c(N2CCCCC2)c1 (centres unmarked) [Cpd.21, 2-[2-fluoro-5-(4-methanesulfonylpiperidin-1-yl)phenyl]-N-{[4-methyl-2-(piperidin-1-yl)phenyl](5-methylfuran-2-yl)methyl}acetamide]
 | 6.00 to 7.00 |  | Cc1ccc(C(NC(=O)Cc2cc(N3CCN(C(=O)OC(C)(C)C)CC3)ccc2F)c2ccccc2)c(N2CCCCC2)c1 (centres unmarked) [Cpd.4, tert-butyl 4-{4-fluoro-3-[({[4-methyl-2-(piperidin-1-yl)phenyl](phenyl)methyl}carbamoyl)methyl]phenyl}piperazine-1-carboxylate]
 | < 5.00 | 5.00 to 6.00 | Cc1ccc(C(NC(=O)Cc2cc(N3CCNCC3)ccc2F)c2ccccc2)c(N2CCCCC2)c1 (centres unmarked) [Cpd.7, 2-[2-fluoro-5-(piperazin-1-yl)phenyl]-N-{[4-methyl-2-(piperidin-1-yl)phenyl](phenyl)methyl}acetamide]
 | 6.00 to 7.00 | > 7.00 | CC(=O)N1CCN(c2ccc(F)c(CC(=O)NC(c3ccccc3)c3ccc(C)cc3N3CCCCC3)c2)CC1 (centres unmarked) [Cpd.13, 2-[5-(4-acetylpiperazin-1-yl)-2-fluorophenyl]-N-{[4-methyl-2-(piperidin-1-yl)phenyl](phenyl)methyl}acetamide]
 | 6.00 to 7.00 | > 7.00 | Cc1ccc(C(NC(=O)Cc2cccc(N3CCN(C)CC3)c2)c2ccc(C)o2)c(N2CCCCC2)c1 (centres unmarked) [Cpd.23, N-{[4-methyl-2-(piperidin-1-yl)phenyl](5-methylfuran-2-yl)methyl}-2-[3-(4-methylpiperazin-1-yl)phenyl]acetamide]
 | > 7.00 | > 7.00 | Cc1ccc(C(NC(=O)Cc2cccc(N3CCC(S(C)(=O)=O)CC3)c2)c2ccc(C)o2)c(N2CCCCC2)c1 (centres unmarked) [Cpd.22, 2-[3-(4-methanesulfonylpiperidin-1-yl)phenyl]-N-{[4-methyl-2-(piperidin-1-yl)phenyl](5-methylfuran-2-yl)methyl}acetamide]
 | 6.00 to 7.00 | 6.00 to 7.00 and > 7.00 | COc1ccc(C(NC(=O)Cc2cc(N3CCN(C(C)=O)CC3)ccc2C)c2ccccc2)c(N2CCCCCC2)c1 (centres unmarked) [Cpd.15, 2-[5-(4-acetylpiperazin-1-yl)-2-methylphenyl]-N-{[2-(azepan-1-yl)-4-methoxyphenyl](phenyl)methyl}acetamide]
 | < 5.00 | 5.00 to 6.00 | Cc1ccc(C(NC(=O)Cc2cc(N3CCN(C(=O)OC(C)(C)C)CC3)ccc2C)c2ccccc2)c(N2CCCCC2)c1 (centres unmarked) [Cpd.5, tert-butyl 4-{4-methyl-3-[({[4-methyl-2-(piperidin-1-yl)phenyl](phenyl)methyl}carbamoyl)methyl]phenyl}piperazine-1-carboxylate]
 | 5.00 to 6.00 | 5.00 to 6.00 | Cc1ccc(C(NC(=O)Cc2cc(N3CCNCC3)ccc2C)c2ccccc2)c(N2CCCCC2)c1 (centres unmarked) [Cpd.6, N-{[4-methyl-2-(piperidin-1-yl)phenyl](phenyl)methyl}-2-[2-methyl-5-(piperazin-1-yl)phenyl]acetamide]
 | 6.00 to 7.00 | 5.00 to 6.00 | Cc1ccc(C(NC(=O)Cc2cc(N3CCN(C(=O)OC(C)(C)C)CC3)ccc2C)c2ccc(C)o2)c(N2CCCCC2)c1 (centres unmarked) [Cpd.8, tert-butyl 4-{4-methyl-3-[({[4-methyl-2-(piperidin-1-yl)phenyl](5-methylfuran-2-yl)methyl}carbamoyl)methyl]phenyl}piperazine-1-carboxylate]
 | 6.00 to 7.00 |  | Cc1ccc(C(NC(=O)Cc2cccc(N3CCN(S(N)(=O)=O)CC3)c2)c2ccc(C)o2)c(N2CCCCC2)c1 (centres unmarked) [Cpd.24, N-{[4-methyl-2-(piperidin-1-yl)phenyl](5-methylfuran-2-yl)methyl}-2-[3-(4-sulfamoylpiperazin-1-yl)phenyl]acetamide]
 | 5.00 to 6.00 | 6.00 to 7.00 | Cc1ccc(C(NC(=O)Cc2cc(N3CCNCC3)ccc2C)c2ccc(C)o2)c(N2CCCCC2)c1 (centres unmarked) [Cpd.9, N-{[4-methyl-2-(piperidin-1-yl)phenyl](5-methylfuran-2-yl)methyl}-2-[2-methyl-5-(piperazin-1-yl)phenyl]acetamide]
 | > 7.00 | 6.00 to 7.00 | Cc1ccc(C(NC(=O)Cc2cccc(N3CCN(C(=O)C(F)(F)F)CC3)c2)c2ccc(C)o2)c(N2CCCCC2)c1 (centres unmarked) [Cpd.25, N-{[4-methyl-2-(piperidin-1-yl)phenyl](5-methylfuran-2-yl)methyl}-2-{3-[4-(trifluoroacetyl)piperazin-1-yl]phenyl}acetamide]
 | 6.00 to 7.00 | 6.00 to 7.00 | CC(=O)N1CCN(c2ccc(CC(=O)NC(CC(C)C)c3ccccc3N3CCCCC3)cc2)CC1 (centres unmarked) [Cpd.2, 2-[4-(4-acetylpiperazin-1-yl)phenyl]-N-{3-methyl-1-[2-(piperidin-1-yl)phenyl]butyl}acetamide]
